Legend:
DUX4 [1] = assay: DUX4 biomarker and target gene expression in muscle of FSHD mouse model (TIC-DUX4) after IM or IV injection; format: in vivo
Protocol: SAA and AdOx, or derivatives thereof, as described herein, are each injected into a FSHD mouse model (TIC-DUX4) or any other mouse model of FSHD mice intramuscularly (IM) or intravenously (IV). After 4, 8, 12, 16, 20, and 24 weeks, the ? DUX4, a DUX4 biomarker, such as Wfdc3 or Trim36, and DUX4 target gene expression are measured by qRT-PCR, RNAscope, or ddPCR.

DUX4 [2] = assay: DUX4-activated biomarkers and target genes in biopsied muscle of FSHD patients after IM or IV injection; format: in vivo, human
Protocol: SAA and AdOx, or derivatives thereof, as described herein, are injected into patients suffering from FSHD intramuscularly (IM) or intravenously (IV). Prior to treatment and after 4, 8, 12, 16, 20, 24, 28, 32, 36 40, 44, 48, and 52 weeks, DUX4-activated biomarkers and/or DUX4 target genes in muscle of the patients are measured in biopsied muscle as described herein.

[3] = system: human myoblasts expressing DUX4; assay: Caspase-3/7 activation assay in human myoblasts transfected with DUX4, with or without inhibitor; format: cell-based; details: inhibitor added 1.5 hours later, increasing concentrations, caspase assay 48 hours later, FIGS. 6A-B
Protocol: HEK293 cells were transfected with 100 ng plasmid DNA (65,000 cells/well) using Lipofectamine 2000 and assays were performed 48 hours later using the Apo-ONE Homogeneous Caspase-3/7 Assay (Promega). The protocol was followed according to the manufacturer's instructions. Briefly, 100 μl of the reagent was added to each well and the 96-well plate was gently rotated for 20 min. Relative fluorescence was monitored every hour for 4-6 hours. Inhibitor studies were performed in human myoblasts which were transfected with 100 ng of DUX4 DNA (65,000 cells/well) with Lipofectamine 2000. The inhibitors adenosine dialdehyde or salvianolic acid A were added 1.5 hours later and a caspase assay was performed 48 hours later as above. The observation that a DUX4 arginine methylation null mutant protects from cell death and DUX4 interacts with an arginine methyltransferase indicate a role for arginine methylation inhibitors as protective in FSHD disease models. Thus, the global methylation inhibitor, adenosine dialdehyde (AdOx)^17, and the PRMT1 inhibitor, salvianolic acid A (SAA)^18 were tested for their ability to protect against DUX4-mediated cell death. The caspase assay was performed in human myoblasts expressing DUX4 in the presence or absence of AdOx or SAA.

Compound: O=C(/C=C/c1ccc(O)c(O)c1/C=C/c1ccc(O)c(O)c1)O[C@H](Cc1ccc(O)c(O)c1)C(=O)O [SAA, salvianolic acid A]
- DUX4 biomarker expression in muscle (Wfdc3 or Trim36) (DUX4 [1]; IM or IV, 4-24 weeks, vs untreated mice): Reduced levels of DUX4 biomarker expression
- expression of DUX4 target genes PRAMEF12, ZSCAN4, TRIM43, LEUTX (DUX4 [1]; IM or IV, vs untreated mice): decreased expression of DUX4 target genes
- muscle strength, morphology, ambulation and motor function (DUX4 [1]; treated mice): improved muscle strength, morphology, and overall ambulation and motor function
- FSHD disease symptoms (DUX4 [2]): Improvement in FSHD disease symptoms
- expression levels of DUX4-activated biomarkers and/or DUX4 target genes in muscle (DUX4 [2]; 4-52 weeks, vs same patients prior to treatment): Reduced expression levels of DUX4-activated biomarkers and/or DUX4 target genes
- caspase cleavage (DUX4-mediated cell death) [3]: decreased caspase cleavage in a dose-responsive manner
